# From US20070135338A1, “Human GLP-1 mimetibodies, compositions, methods and uses” (priority 2004, published 2007)
# Tests used:
# normal dogs = experiment: Gastric emptying in normal dogs; assay type: in vivo, beagle dogs; conditions: lidamidine 0.63 mg/kg subcutaneously 60 minutes before the meal, GLP-1 MMB 0.1 mg/kg intravenously 15 minutes before the meal
# Procedure: GLP-1 MMB delays gastric emptying in normal dogs. A gastric cannula was surgically implanted into female beagle dogs (10-15 kg) under general anesthesia and allowed-to recover for at least 2 weeks. Dogs were fasted for 24 hours after which water was freely available. The gastric cannula was opened and gastric juice and food remnants were removed with 40-50 ml of lukewarm water. Groups of six dogs were dosed subcutaneously with lidamidine, an alpha2 agonist (0.63 mg/kg), 60 minutes before the meal, a positive control for delay of gastric emptying. Dogs dosed with the vehicle control or GLP-1 MMB (0.1 mg/kg) were dosed intravenously in the cephalic vein 15 minutes before the meal. Five minutes before the meal, the gastric cannula was opened to determine the amount of fluid present in stomach for baseline value and fluid was promptly reintroduced. […] Glucose concentrations were evaluated for collected samples and used to determine the absolute amount of glucose remaining in the stomach at each time point. The percentage of glucose retained in the stomach was determined from the starting value and the concentration of glucose at each time point and plotted as a function of time. The time at which 50% of the gastric contents were retained was determined by fitting of the curves to a single exponential.
# [1] = administered subcutaneously; cited from earlier work
# diabetic db/db mice [2] = experiment: Fasting blood glucose during chronic dosing to diabetic db/db mice; assay type: in vivo; conditions: 1 mg/kg subcutaneously daily for six weeks
# Procedure: Effects of GLP-1 MMB on fasting blood glucose during chronic dosing to diabetic mice. Ten-week old diabetic db/db mice were subcutaneously dosed daily with vehicle or GLP-1 MMB (1 mg/kg) for six weeks. Fasting blood glucose was measured twice per week during the course of the study.
# DPP-IV = target: T1, DPP-IV (Homo sapiens, UniProt P27487); experiment: DPP-IV cleavage assay; assay type: in vitro ADME; conditions: 1.2 nM, DPP-IV 1 μg/mL, room temperature, 0-40 minutes
# T1 construct: purchased R&D Systems
# Procedure: DPP-IV cleavage assay. Since GLP-1 is rapidly inactivated by DPP-IV, an in vitro assay was established to quantitate intact (i.e. uncleaved) GLP-1 MMB. Briefly, GLP-1 MMB or peptide (1.2 nM) was incubated at room temperature with DPP-IV (1 μg/mL, R&D Systems). After various times (0, 5, 10, 15, 20, 30, 40 minutes), a DPP-IV inhibitor (100 μM, Linco) was added to quench the reaction. The amount of intact GLP-1 MMB or peptide was measured using the GLP-1 Active ELISA (Linco) and the GLP-1 MMB or peptides for the respective standard curves.
# diabetic db/db mice [3] = experiment: Oral glucose tolerance test after chronic dosing to diabetic db/db mice; assay type: in vivo; conditions: 1 mg/kg daily
# Procedure: Effects of GLP-1 MMB on oral glucose tolerance test after chronic dosing to diabetic mice. As in Example 11, ten-week old diabetic db/db mice were dosed daily with vehicle or GLP-1 MMB (1 mg/kg) for six weeks. After 40 days of dosing, the mice were given an oral glucose tolerance test. Briefly, at t=0, mice were given an oral gavage of 1.0 mg/g glucose, and blood glucose was measured at various times.
# [4] = test system: normal cynomolgus monkeys; experiment: Oral glucose tolerance test in normal cynomolgus monkeys; assay type: in vivo; conditions: single dose 1 mg/kg
# Procedure: Effects of GLP-1 MMB on an oral glucose tolerance test in normal cynomolgus monkeys. An oral glucose tolerance test (OGTT) was done in normal cynomolgus monkeys prior to and six days after a single dose of the GLP-1 MMB (1 mg/kg). Briefly, at t=0, monkeys were given an oral gavage of 2.0 mg/g glucose, and blood glucose was measured at various times.
# diet induced obese mice = experiment: Oral glucose tolerance test in diet induced obese mice; assay type: in vivo
# Procedure: GLP-1 MMB lowers blood glucose following an oral glucose tolerance test (OGTT) in diet induced obese mice. To develop a murine model of diet induced obesity, mice were maintained on a high fat diet for at least 27 weeks. Mice became obese and were determined to be diabetic when fasting blood glucose values exceeded 120 mg/dl. To evaluate the effect of GLP-1 MMB therapy on postprandial blood glucose levels, diet induced obese mice were fasted overnight and dosed subcutaneously with 0.02, 0.2, or 2 mg/kg GLP-1 MMB or vehicle control. Six hours after dosing, mice were given a 1.5 mg/g gastric gavage of glucose. Blood glucose levels were determined prior to MMB dosing, at t =0, 15, 30, 60, 90, 120, 150, and 180 minutes using tail vein blood.
# [5] = Human serum stability assay; assay type: in vitro ADME; conditions: 30 nM, 37° C., GLP-1 Active ELISA
# Procedure: Human Serum stability assay. The stability of the GLP-1 MMB in serum was also measured to ensure that other serum proteases were not able to cleave and inactivate the GLP-1 MMB. Briefly, GLP1 peptide or the GLP1 MMB (30 nM) was incubated in human serum at 37° C. After various times, the reactions were quenched with a DPP-IV inhibitor (100 μM, Linco), and the samples were analyzed using the GLP-1 Active ELISA from Linco.
# control HEK293 cells = experiment: FACS binding assay, control HEK293 cells; conditions: flow cytometry
# GLP-1R = target: T2, GLP-1R (Homo sapiens, UniProt P43220); experiment: FACS binding assay, HEK293 cells over-expressing the GLP-1R; conditions: 20 nM, 2 hours at 4° C., flow cytometry
# T2 construct: expressed in transfected cells; host or cells: HEK293
# Procedure: FACS Binding Assay. The activity of GLP-1 mimetibody was tested in an in vitro FACS binding assay. To determine whether the GLP-1 MMB binds the GLP-1R, HEK293 cells (1×10^6 cells) over-expressing the GLP-1R were incubated with GLP-1 MMB (20 nM) for 2 hours at 4° C. The cells were washed, and a fluorescently labeled secondary […] detection antibody (1 μg/mL goat anti-human IgG, Fc gamma specific) was added for 30 minutes at 4° C. The fluorescence intensity of the cells was monitored via flow cytometry.
# diabetic db/db mice [6] = experiment: Oral glucose tolerance test in diabetic db/db mice, single dose; assay type: in vivo; conditions: subcutaneous 0.02 to 2 mg/kg, all doses tested, 1.0 mg/g glucose
# Procedure: Effects of GLP-1 MMB during an oral glucose tolerance test in diabetic mice. Eight-week old diabetic db/db mice were fasted for 6 hours prior to a subcutaneous injection of the GLP-1 MMB (0.02 to 2 mg/kg). Following dosing, mice were fasted for an additional six hours and a baseline fasting blood glucose was measured. At t=0, mice were given an oral gavage of 1.0 mg/g glucose, and blood glucose was measured at various times.
# db/db mice = experiment: Intraperitoneal glucose tolerance test (IPGTT) in db/db mice; assay type: in vivo
# Procedure: GLP-1 MMB lowers blood glucose in an intraperitoneal glucose tolerance test (IPGTT) in db/db mice. Male db/db mice of approximately 13-15 weeks of age were randomized into treatment groups of six mice based on fasting blood glucose levels. Mice were dosed with either 0.02 mg/kg or 0.1 mg/kg of GLP- I MMB or 0.1 mg/kg of negative control MMB six hours prior to the glucose tolerance test. Five minutes before the glucose tolerance test, a glucose measurement was taken with a hand held glucometer from tail vein blood. Mice were then dosed intraperitoneally with 1 mg/g of D-glucose and blood glucose levels were monitored at 10 min,20 min,30 min, 60 min, 90 min, 120 min, 150 min, and 180 min. […] Additional groups of animals treated in the same manner were sacrificed for measurement of insulin levels at t=10 minutes.
# diabetic db/db mice [7] = experiment: HbA1c after chronic dosing to diabetic db/db mice; assay type: in vivo; conditions: 1 mg/kg daily for six weeks
# Procedure: Effects of GLP-1 MMB on reducing HbAlc after chronic dosing to diabetic mice. As in Examples 11 and 12, ten-week old diabetic db/db mice were dosed daily with vehicle or GLP-1 MMB (1 mg/kg) for six weeks. Before and after six-weeks of dosing, whole blood samples were taken and analyzed for percent HbA1c.
# diabetic mice (db/db) = experiment: Insulin staining in islets of diabetic mice (db/db) after a single dose; assay type: in vivo; conditions: single subcutaneous dose 1.5 mg/kg, four weeks later
# Procedure: Effects of GLP-1 MMB on insulin staining in islets of diabetic mice (db/db) after a single dose. Twelve-week old diabetic mice (db/db) were treated with a single subcutaneous dose of the GLP-1 MMB (1.5 mg/kg), and the pancreata were harvested four weeks later. The pancreata were sectioned and stained for the presence of insulin.
# [8] = test system: patients with type 2 diabetes; conditions: type 2 diabetic patients, cited from earlier work
# RINm cells = experiment: Insulin secretion in RINm cells (ELISA); assay type: cell-based; conditions: peptides 0-5 nM, mimetibodies 5 or 50 nM
# Procedure: GLP-1 MMB causes insulin secretion in RINm cells. To test the effect of GLP-1 MMB in insulin secretion, RINm cells were treated with increasing concentrations of GLP-1 (7-36) peptide (0-5 nM), exendin-4 peptide (0-5 nM), or various GLP-1 mimetibodies (5 or 50 nM) and the amount of insulin secreted was measured via ELISA. All GLP-1 MMBs tested had activities in stimulating insulin secretion in RINm cells (FIG. 6).
# T1 sequence (P27487 whole entry, species assumed): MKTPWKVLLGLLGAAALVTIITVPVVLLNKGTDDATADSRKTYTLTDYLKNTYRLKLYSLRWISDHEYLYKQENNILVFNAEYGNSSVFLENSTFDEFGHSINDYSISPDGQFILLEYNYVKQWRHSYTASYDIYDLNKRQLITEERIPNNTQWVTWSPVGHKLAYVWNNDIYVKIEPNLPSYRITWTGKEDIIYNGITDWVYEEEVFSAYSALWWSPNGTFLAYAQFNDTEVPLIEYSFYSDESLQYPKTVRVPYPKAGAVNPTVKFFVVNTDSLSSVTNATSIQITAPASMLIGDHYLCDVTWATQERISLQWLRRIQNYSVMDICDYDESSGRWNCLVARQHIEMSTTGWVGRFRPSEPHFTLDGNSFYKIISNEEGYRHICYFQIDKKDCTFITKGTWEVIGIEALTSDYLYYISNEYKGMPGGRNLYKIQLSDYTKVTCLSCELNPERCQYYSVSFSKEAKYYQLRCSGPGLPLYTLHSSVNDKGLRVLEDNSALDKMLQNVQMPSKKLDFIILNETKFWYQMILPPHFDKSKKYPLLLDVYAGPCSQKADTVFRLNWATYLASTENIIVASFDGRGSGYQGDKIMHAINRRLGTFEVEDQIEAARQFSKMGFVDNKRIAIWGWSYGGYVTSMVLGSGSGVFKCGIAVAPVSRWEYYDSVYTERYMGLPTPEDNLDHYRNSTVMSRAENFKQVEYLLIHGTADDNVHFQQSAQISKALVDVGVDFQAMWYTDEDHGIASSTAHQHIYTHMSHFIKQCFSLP
# T2 sequence (P43220 24-463, species assumed): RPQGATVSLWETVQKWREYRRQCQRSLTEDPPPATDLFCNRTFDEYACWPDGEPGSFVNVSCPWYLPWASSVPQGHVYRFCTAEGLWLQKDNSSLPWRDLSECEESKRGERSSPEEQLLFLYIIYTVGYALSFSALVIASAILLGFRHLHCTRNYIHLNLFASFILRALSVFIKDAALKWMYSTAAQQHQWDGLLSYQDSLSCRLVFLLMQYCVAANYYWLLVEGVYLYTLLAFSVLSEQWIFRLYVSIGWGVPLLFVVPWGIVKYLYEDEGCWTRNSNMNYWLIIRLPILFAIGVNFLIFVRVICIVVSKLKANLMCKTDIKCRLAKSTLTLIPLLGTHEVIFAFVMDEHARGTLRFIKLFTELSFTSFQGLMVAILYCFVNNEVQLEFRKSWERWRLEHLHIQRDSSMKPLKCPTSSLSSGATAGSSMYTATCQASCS
molecule,measurement,setting,value
"CN=C(N)NC(=O)Nc1c(C)cccc1C [lidamidine, reference compound]",time in which 50% of the gastric contents were emptied,normal dogs,30.60 ± 6.47 min
GLP-1 (7-36) amide: GLP-1 (7-36) amide,time action,[1],about 50 minutes
"GLP-1 MMB: GLP-1 mimetibody construct (SEQ ID NO:2): GLP-1 peptide (7-36), flexible linker, J region, IgG1 hinge, CH2 and CH3","difference in fasting blood glucose, control vs treated, by six weeks",diabetic db/db mice [2],more than 200 mg/dL
same,fasting blood glucose by six weeks,diabetic db/db mice [2],221 mg/dL
same,resistance to cleavage by DPP-IV relative to the GLP-1 peptide,DPP-IV,significantly more resistant
same,time in which 50% of the gastric contents were emptied,normal dogs,59.23 ± 14.46 min
same,glucose excursion during an oral glucose tolerance test after 40 days of dosing,diabetic db/db mice [3],effective in lowering the glucose excursion
same,insulin levels in OGTT six days after dosing,[4],significantly increased
same,blood glucose levels in OGTT six days after dosing,[4]; 2.0 mg/g glucose,significantly reduced
same,glucose areas under the curve between t=0 and t=180,diet induced obese mice; all doses,significant lowering
same,fasting blood glucose values at t=0 and all subsequent time points,"diet induced obese mice; subcutaneous 0.02, 0.2, or 2 mg/kg, six hours before 1.5 mg/g glucose",dose dependent decrease
same,stability in human serum,[5],stable in human serum for 24 hours
same,binding to control HEK293 cells,control HEK293 cells,does not bind
same,binding to HEK293 cells over-expressing the GLP-1R,GLP-1R,binds
same,glucose excursion during an oral glucose tolerance test,diabetic db/db mice [6],effective in lowering the glucose excursion
same,amount of insulin released at t=10 minutes,db/db mice; 0.02 mg/kg or 0.1 mg/kg,dose dependent increase
same,blood glucose levels over the full time course of IPGTT,"db/db mice; 0.02 mg/kg or 0.1 mg/kg six hours prior, 1 mg/g D-glucose",significant lower
same,increase of HbA1C during the six-week period,diabetic db/db mice [7],109%
same,insulin staining in pancreata relative to control animals,diabetic mice (db/db),significantly more insulin staining
GLP-1: Glucagon like peptide-1 given as six-week infusion in the clinic (HAEGTFTSDVSSYLEGQAAKEFIAWLVKGRG),fasting and 8-hour mean plasma glucose levels,[8]; six-week infusion,lowered
same,β-cell function,[8],improvement in β-cell function
"exendin-4 peptide: exendin-4 peptide, comparator in insulin secretion assay",insulin secretion in RINm cells,RINm cells,stimulates insulin release
